≈ marks a conversion by molar mass, not a printed value. Where “and” joins values, the source holds several entries; their conditions need not be identical. Equal values may be shown once. Read-outs that look alike come from different tables or passages of the source.
How the values were obtained:
[1] = system: tetracycline resistant E. coli (tetA efflux pump); assay type: cell-based, Escherichia coli
Experimental: (§1) However, the bacterial strains used herein are multidrug resistant and the effect of hydraphiles on the inhibition of resistance mechanism (efflux pumps) was not known. The hydraphiles and the controls were tested next to see whether they could recover the activity of antibiotics against efflux pump expressing Gram-positive and Gram-negative bacteria. The MIC of antibiotics were determined in the presence of ½ [MIC] or ¼ [MIC] of each hydraphile or the controls used.

S. aureus 1199B = experiment: MIC, S. aureus 1199B; assay type: cell-based, Staphylococcus aureus
Source text: (§2) K. pneumoniae (ATCC BAA 2146; another Gram-negative bacterium) that expresses multiple classes of efflux pumps and NDM-1 gene was also used. This K. pneumoniae is a clinically relevant strain that was isolated from a patient. Gram-positive S. aureus 1199B was used that overexpresses the NorA efflux pump. Since ethidium bromide and norfloxacin are the substrates of efflux pumps, S. aureus 1199B was used to evaluate the activity of efflux pumps in the presence of the hydraphiles and other membrane disruptors.
(§3) The minimal inhibitory concentrations (MIC) of all the compounds against three bacterial strains were first determined using the microtiter technique as described above. […] Antimicrobial property of hydraphiles is attributed to the disruption of ion homeostasis in bacteria.

E. coli = experiment: Minimum inhibitory concentration (MIC), E. coli; assay type: cell-based, Escherichia coli; settings: compound alone
Source text: (§4) Among the organisms studied are several strains of the bacterium E. coli.
(§5) Minimal Inhibitory Concentration (MIC) Procedure. […] Streak the E. coli (DH5α or K-12 MG1655) strain on L.B agar plates. […] Prepare initial concentration of all the compounds required. • 5. […] Vortex each test tube for 2-3 seconds. • 9. […] Vortex each test tube for 2-3 seconds. • 11.

S. cerevisiae = experiment: Minimum inhibitory concentration (MIC), S. cerevisiae; assay type: cell-based, Saccharomyces cerevisiae; settings: compound alone
B. subtilis = experiment: Minimum inhibitory concentration (MIC), B. subtilis; assay type: cell-based, Bacillus subtilis; settings: compound alone
Experimental: Among the organisms studied are several strains of the bacterium E. coli. […] Experiments were conducted to determine the MIC values for the synthetic amphiphiles known as lariat ethers according to the procedures described in Antimicrobial M07-A9: Methods for Dilution Antimicrobial Susceptibility Tests for Bacteria that Grow Aerobically; Clinical and Laboratory Standards Institute, 2012; Vol. 32, 67 pp. MIC values so determined for several lariat ethers and for several antibiotics are shown in Table 1.

HEK-293 cells = experiment: Toxicity of lariat ethers to HEK-293 cells (MTT assay); assay type: cell-based
Source text: The error bars represent the standard error. […]

[2] = system: tetracycline resistant E. coli (tetA efflux pump); experiment: microbe, parasite or virus in culture; assay type: cell-based, Escherichia coli; settings: compound alone; for MIC: tetracycline resistant E. coli
Source text: as §4
Minimal Inhibitory Concentration (MIC) Procedure. […] Streak the E. coli (DH5α or K-12 MG1655) strain on L.B agar plates. […] Prepare initial concentration of all the compounds required. • 5. […] Vortex each test tube for 2-3 seconds. • 9. […] Vortex each test tube for 2-3 seconds. • 11. […]
as §3

K-12 E. coli [3] = experiment: MIC, K-12 E. coli; assay type: cell-based, Escherichia coli; settings: compound alone
Source text: as §5

K-12 E. coli [4] = experiment: Combination of amphiphile and antibiotic against K-12 E. coli; assay type: cell-based, Escherichia coli
Experimental: (§6) Steps 1-7, described in the MIC procedure, shown in Example 2, were followed. • 2. While the E. coli grew, the appropriate volume of compound was added to each test tube. • 3. Antibiotics were added at the required volume of solution to obtain the desired concentration in each test tube. […] Each test tube was vortexed for 2-3 seconds. • 5. Steps 10-12 from the MIC procedure, shown in Example 2, were then executed.

DH5α E. coli [5] = assay type: cell-based, Escherichia coli; settings: compound alone
Source text: as §4, §5

DH5α E. coli [6] = experiment: Combination of lariat ether and antibiotic against DH5α E. coli; assay type: cell-based, Escherichia coli;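 also: E. coli grown in test-tube liquid culture at a fixed total volume of 2 mL, with the amphiphile and the antibiotic both added to each tube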
Experimental: The volume of water added was between 12 to 0.5 μL. The volume of water added was not constant but the volume of media was changed so that the total volume was kept constant at 2 mL.
as §6

[7] = system: K. pneumoniae (ATCC BAA 2146); experiment: MIC, K. pneumoniae; assay type: cell-based, Klebsiella pneumoniae; settings: for MIC: Klebsiella pneumoniae, BAA2146, read-out: Minimal Inhibitory Concentrations (MIC) K. pneumoniae
Source text: as §2, §3

[8] = system: K. pneumoniae (ATCC BAA 2146); experiment: Recovery of antibiotic activity against K. pneumoniae by hydraphiles; assay type: cell-based, Klebsiella pneumoniae
Experimental: as §1

[9] = Rifampicin, amphiphile used 6 μM
[10] = Tetracycline, amphiphile used 16 μM
[11] = rifampicin, amphiphile used 8 μM, 0.4 vol-% DMSO
[12] = rifampicin, amphiphile used 16 μM, 0.4 vol-% DMSO
[13] = rifampicin, amphiphile used 18 μM, 0.4 vol-% DMSO
[14] = rifampicin, amphiphile used […] μM, 0.4 vol-% DMSO
[15] = tetracycline, amphiphile used 4 μM, 0.4 vol-% DMSO
[16] = tetracycline, amphiphile used 16 μM, 0.4 vol-% DMSO
[17] = tetracycline, amphiphile used 18 μM, 0.4 vol-% DMSO
[18] = tetracycline, amphiphile used […] μM, 0.4 vol-% DMSO
[19] = Tetracycline, amphiphile used 6 μM

Gramicidin D [reference compound]
[Tetracycline] μM in combination ([1]; amphiphile/control 20 μM): 900 ± 100 µM

CCn1cc(C(=O)O)c(=O)c2cc(F)c(N3CCNCC3)cc21 [norfloxacin]
susceptibility of S. aureus 1199B (S. aureus 1199B): resistant

N,N′-di-n-tetradecyl-4,13-diaza-18-crown-6 [C14 lariat ether]
MIC (μM) E. coli (E. coli): >300 µM | MIC (μM) S. cerevisiae (S. cerevisiae): >300 µM | MIC (μM) B. subtilis (B. subtilis): >300 µM

N,N′-di-n-decyl-4,13-diaza-18-crown-6 [C10 lariat ether]
MIC (μM) E. coli (E. coli): 11 µM | toxicity to HEK-293 compared among lariat ethers (HEK-293 cells): highest toxicity | MIC [2]: 16 µM | MIC (K-12 E. coli [3]): 12 µM | Antibiotic Used (μM) in combination (K-12 E. coli [4]; [9]): 5 µM | MIC (μM) S. cerevisiae (S. cerevisiae): 2.8 µM | Antibiotic Used (μM) in combination ([1]; amphiphile used 6 μM): 225 µM | Fold Enhancement ([1]; amphiphile used 6 μM): 4 fold | Antibiotic Used (μM) in combination ([1]; amphiphile used 9 μM): 56 µM | Fold Enhancement ([1]; amphiphile used 9 μM): 16 fold | MIC (μM) B. subtilis (B. subtilis): 2.8 µM | MIC (DH5α E. coli [5]): 12 µM

c1ccc(CN2CCOCCOCCN(Cc3ccccc3)CCOCCOCC2)cc1 [Dibenzyl diaza crown, N,N′-Dibenzyl-4,13-diaza-18-crown-6, reference compound]
Fold Enhancement ([1]; amphiphile/control 128 μM): 1-fold | [Tetracycline] μM in combination ([1]; amphiphile/control 128 μM): 900 µM | Fold Enhancement ([1]; amphiphile/control 128 μM, listed as Dibenzyl di-aza-crown): did not show any recovery

N,N′-di-n-dodecyl-4,13-diaza-18-crown-6 [C12 lariat ether]
MIC (μM) E. coli (E. coli): >300 µM | MIC (K-12 E. coli [3]): >512 µM | Antibiotic Used (μM) in combination (K-12 E. coli [4]; [10]): 3 µM | Fold Enhancement (K-12 E. coli [4]; [10]): 2 fold | MIC (μM) S. cerevisiae (S. cerevisiae): 2.5 µM | Antibiotic Used (μM) in combination ([1]; amphiphile used 192 μM): 450 µM | Fold Enhancement ([1]; amphiphile used 192 μM): 2 fold | MIC (μM) B. subtilis (B. subtilis): 2.5 µM

N,N′-di-n-octyl-4,13-diaza-18-crown-6 [C8 lariat ether]
MIC (μM) E. coli (E. coli): 120 µM | Antibiotic Used (μM) in combination (DH5α E. coli [6]; rifampicin, amphiphile used 40 μM, 0.4 vol-% DMSO): 3 ± 1 µM | Antibiotic Used (μM) in combination (DH5α E. coli [6]; rifampicin, amphiphile used 60 μM, 0.4 vol-% DMSO): 3 ± 1 µM | Antibiotic Used (μM) in combination (DH5α E. coli [6]; rifampicin, amphiphile used 80 μM, 0.4 vol-% DMSO): 3 ± 1 µM | Antibiotic Used (μM) in combination (DH5α E. coli [6]; tetracycline, amphiphile used 20 μM, 0.4 vol-% DMSO): 12 µM | Antibiotic Used (μM) in combination (DH5α E. coli [6]; tetracycline, amphiphile used 30 μM, ≤0.6 vol-% DMSO): 3 µM | Antibiotic Used (μM) in combination (DH5α E. coli [6]; tetracycline, amphiphile used 40 μM, 0.4 vol-% DMSO): 2 µM | Antibiotic Used (μM) in combination (DH5α E. coli [6]; tetracycline, amphiphile used 60 μM, 0.4 vol-% DMSO): 2 µM | Antibiotic Used (μM) in combination (DH5α E. coli [6]; tetracycline, amphiphile used 80 μM, 0.4 vol-% DMSO): 0.5 µM | Antibiotic Used (μM) in combination (DH5α E. coli [6]; tetracycline, amphiphile used 100 μM, 0.4 vol-% DMSO): 0.25 µM | LD50 to HEK-293 (HEK-293 cells): 33 µM | MIC [2]: 120 µM | MIC (K-12 E. coli [3]): 300 µM | Antibiotic Used (μM) in combination (K-12 E. coli [4]; Rifampicin, amphiphile used 32 μM): 10 µM | Antibiotic Used (μM) in combination (K-12 E. coli [4]; Rifampicin, amphiphile used […] μM): 5 µM | Antibiotic Used (μM) in combination (K-12 E. coli [4]; Tetracycline, amphiphile used […] μM): 2.5 µM | MIC (μM) S. cerevisiae (S. cerevisiae): 25 µM | Antibiotic Used (μM) in combination ([1]; amphiphile used 40 μM): 233 µM | Fold Enhancement ([1]; amphiphile used 40 μM): 4 fold | Antibiotic Used (μM) in combination ([1]; amphiphile used 60 μM): 175 µM | Fold Enhancement ([1]; amphiphile used 60 μM): 5 fold | Antibiotic Used (μM) in combination ([1]; amphiphile used 80 μM): 87 µM | Fold Enhancement ([1]; amphiphile used 80 μM): 10 fold | MIC (μM) B. subtilis (B. subtilis): 105 µM | MIC (DH5α E. coli [5]): > 240 µM | MIC (DH5α E. coli [5]; listed as C8 Lariat): 120 µM | MIC (DH5α E. coli [5]; listed as n-C8): >120 µM

O=C(O)c1cn(C2CC2)c2cc(N3CCNCC3)c(F)cc2c1=O [Ciprofloxacin]
MIC [7]: 700 µM (≈ 232 µg/mL) | susceptibility of S. aureus 1199B (S. aureus 1199B): resistant | recovery of ciprofloxacin activity by hydraphiles [8]: 10 fold

CN(C)[C@@H]1C(O)=C(C(N)=O)C(=O)[C@@]2(O)C(O)=C3C(=O)c4c(O)cccc4[C@@](C)(O)[C@H]3C[C@@H]12 [tetracycline]
MIC [7]: 1000 µM (≈ 444 µg/mL) | Minimal Inhibitory Concentrations (MIC) K. pneumoniae ([7]; compound alone, inhibition greater than 80% considered as the MIC): 1000 ± 100 µM | MIC ([2]; Escherichia coli): ~900 µM (≈ 400 µg/mL) | Minimal Inhibitory Concentrations (MIC) E. coli (Tet^R) ([2]; microtiter, inhibition greater than 80% considered as the MIC): 900 µM and 900 ± 100 µM | MIC [2]: 900 ± 50 µM and 900 µM | MIC (K-12 E. coli [3]; Escherichia coli): 6 µM (≈ 2.67 µg/mL) | recovery of tetracycline activity by hydraphiles [8]: 40 fold

CO[C@H]1/C=C/O[C@@]2(C)Oc3c(C)c(O)c4c(O)c(c(/C=N/N5CCN(C)CC5)c(O)c4c3C2=O)NC(=O)/C(C)=C\C=C\[C@H](C)[C@H](O)[C@@H](C)[C@@H](O)[C@@H](C)[C@H](OC(C)=O)[C@@H]1C [rifampicin, reference compound]
MIC (K-12 E. coli [3]; Escherichia coli): 20 µM (≈ 16.5 µg/mL) | MIC (DH5α E. coli [5]): 60 µM (≈ 49.4 µg/mL)

CCCCCCCCCCCN1CCOCCOCCN(CCCCCCCCCCC)CCOCCOCC1 [C11 lariat ether, N,N′-bis(n-undecyl)-4,13-diaza-18-crown-6]
MIC (μM) E. coli (E. coli): 24 µM (≈ 13.7 µg/mL) | Antibiotic Used (μM) in combination (DH5α E. coli [6]; [11]): 15 µM | Fold Enhancement (DH5α E. coli [6]; [11]): 4 fold | Antibiotic Used (μM) in combination (DH5α E. coli [6]; [12]): 6 µM | Fold Enhancement (DH5α E. coli [6]; [12]): 10 fold | Antibiotic Used (μM) in combination (DH5α E. coli [6]; [13]): 3 µM | Fold Enhancement (DH5α E. coli [6]; [13]): 20 fold | Antibiotic Used (μM) in combination (DH5α E. coli [6]; [14]): 6 µM | Fold Enhancement (DH5α E. coli [6]; [14]): 10 fold | Antibiotic Used (μM) in combination (DH5α E. coli [6]; [15]): 3 µM | Fold Enhancement (DH5α E. coli [6]; [15]): 4 fold | Antibiotic Used (μM) in combination (DH5α E. coli [6]; [16]): 0.25 µM | Fold Enhancement (DH5α E. coli [6]; [16]): 48 fold | Antibiotic Used (μM) in combination (DH5α E. coli [6]; [17]): 1.5 µM | Fold Enhancement (DH5α E. coli [6]; [17]): 8 fold | Antibiotic Used (μM) in combination (DH5α E. coli [6]; [18]): 1 µM | Fold Enhancement (DH5α E. coli [6]; [18]): 12 fold | LD50 to HEK-293 (HEK-293 cells): 22 µM | MIC [2]: 24 µM (≈ 13.7 µg/mL) | MIC (K-12 E. coli [3]): 24 µM (≈ 13.7 µg/mL) | Antibiotic Used (μM) in combination (K-12 E. coli [4]; [9]): 10 µM | Fold Enhancement (K-12 E. coli [4]; [9]): 2 fold | Antibiotic Used (μM) in combination (K-12 E. coli [4]; [19]): 2.5 µM | Fold Enhancement (K-12 E. coli [4]; [19]): ~2 fold | MIC (μM) S. cerevisiae (S. cerevisiae): 1.5 µM (≈ 0.856 µg/mL) | Antibiotic Used (μM) in combination ([1]; amphiphile used 8 μM): 175 µM | Fold Enhancement ([1]; amphiphile used 8 μM): 5 fold | Antibiotic Used (μM) in combination ([1]; amphiphile used 16 μM): 87 µM | Fold Enhancement ([1]; amphiphile used 16 μM): 10 fold | Antibiotic Used (μM) in combination ([1]; amphiphile used 18 μM): 87 µM | Fold Enhancement ([1]; amphiphile used 18 μM): 10 fold | Antibiotic Used (μM) in combination ([1]; amphiphile used […] μM): 87 µM | Fold Enhancement ([1]; amphiphile used […] μM): 10 fold | MIC (μM) B. subtilis (B. subtilis): 9 µM (≈ 5.14 µg/mL) | MIC (DH5α E. coli [5]): 24 µM (≈ 13.7 µg/mL)

Reference: patent US10463044B2, “Molecules that inhibit efflux pumps in multi-drug resistant bacteria and uses thereof” (priority 2014, dated 2019)
